Reference: PMC6874667, “A conserved odorant binding protein is required for essential amino acid detection in Drosophila” (Communications Biology, 2019)
Where a name gives a salt, the structure may show the parent alone.

Target: T1, OBP19b (Drosophila melanogaster, UniProt Q9VR95)
T1 construct: mature OBP19b without its native signal peptide
T1 sequence (Q9VR95 34-163): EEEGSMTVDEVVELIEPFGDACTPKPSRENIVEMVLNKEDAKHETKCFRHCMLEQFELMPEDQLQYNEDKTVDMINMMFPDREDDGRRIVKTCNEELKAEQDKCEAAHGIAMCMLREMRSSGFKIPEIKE
Test: biochemical
Set-up: competitive NPN probe displacement from recombinant OBP19b, fluorescence 340/415 nm, single concentration, per cent fluorescence displacement
Settings: NPN displacement; buffer blank 13.4 % not subtracted
Protocol: To measure the affinity of OBP19b to ligands, a competitive screening assay was performed at 23 °C using a 96-well microplate format and a Victor3 V microplate reader (PerkinElmer Life Sciences) with 25 and 5 nm slits for excitation and emission, respectively. The excitation wavelength was 340 nm, and the fluorescence emission intensity was recorded at 415 nm. First, a wide screening array involving various ligand compounds was performed. Each well contained 200 µL of 2 µM OBP19b with 4 µM NPN dissolved in 50 mM sodium phosphate buffer at pH 7.5. Fatty acids and bitter compounds were tested in the µM range, whereas sugars, amino acids, vitamins, acids, amines, and isothiocyanate compounds were tested in the mM range. All tested compounds were dissolved in 10% methanol except amino acids, which were dissolved in 50 mM sodium phosphate buffer at pH 7.5. Based on the results of the first screen, the 20 L-amino acids, certain D-amino acids and three nonproteinogenic amino acids were tested by adding 100 µL of a 30 mM ligand stock solution to the microplate wells to obtain a final concentration of 15 mM, and then the solution was mixed. Significant differences using one-way analysis of variance (ANOVA) followed by Dunnett’s test were observed compared to the buffer (***p < 0.001; **p < 0.01). The competitive-binding curves were identified by titration of OBP19b/NPN complex with aliquots of 50 mM ligand to final concentration ranging from 0 to 20 mM. The dissociation constants (Kdapp) of each compound were calculated according to the corresponding IC50 values (the concentration of ligands required to halve the initial fluorescence value of NPN) using the following equation: Kdapp = [IC50]/(1 + […]/KNPN), where [NPN] is the free concentration of NPN. The reported Kdapp values are the average of three measurements performed on three independently experiments.  Fig. 2 Binding properties of OBP19b with a competitive fluorescent assay. The fluorescent displacement of the fluorescent probe NPN by various taste compounds was evaluated by adding aliquots of 50 mM ligand (dissolved in 50 mM sodium phosphate buffer at pH 7.5) to final concentration ranging from 0 to 20 mM. a Fatty acid esters and bitter compounds were tested at a final concentration of 40 µM. b Amino acids, vitamins, acids, amines, trigeminal (isothiocyanate), and sugars compounds were tested at a 15 mM final concentration. c Fluorescent displacement of 20 L-amino acids, including L-phenylalanine (L-Phe: magenta color), L-glutamine (L-Gln: green) and L-alanine (L-Ala: cyan); three nonproteinogenic amino acids L-ornithine (L-Orn), L-canavanine (L-Can), L-citrulline (L-Cit); and three D-amino acids (D-phenylalanine: orange, D-glutamine: blue, and D-alanine: gray). Dots indicate essential amino acids. Statistical differences were determined using one-way ANOVA followed by Dunnett’s test (***p < 0.001; **p < 0.01). d Competitive-binding curves of L-Phe and L-Gln (showing the lowest Kdapp), L-Ala (negative control), and their three corresponding D-isomers. Data values represent the mean ± SEM.

| inhibition at 15000 µM [%] | Structure (SMILES) |
| --- | --- |
| 22.6 | NC(=O)CC[C@@H](N)C(=O)O [D-glutamine] |
| 28.3 | N[C@H](Cc1ccccc1)C(=O)O [D-phenylalanine] |
| 40.7 | NC(=O)CC[C@H](N)C(=O)O [L-Gln, L-glutamine] |
| 44 | N[C@@H](Cc1ccccc1)C(=O)O [L-Phe, L-phenylalanine] |
| 40.5 | N=C(N)NCCC[C@H](N)C(=O)O [L-arginine] |
| 41.2 | NC(=O)C[C@H](N)C(=O)O [L-asparagine] |
| 43.4 | N[C@@H](CC(=O)O)C(=O)O [L-aspartic acid] |
| -14.4 | N[C@@H](CS)C(=O)O [L-cysteine] |
| -0.061 | N[C@@H](CCC(=O)O)C(=O)O [L-glutamic acid] |
| 7.44 | N[C@@H](Cc1c[nH]cn1)C(=O)O [L-histidine] |
| 22.8 | CC(C)C[C@H](N)C(=O)O [L-leucine] |
| 37.3 | CSCC[C@H](N)C(=O)O [L-methionine] |
| 25.1 | NCCC[C@H](N)C(=O)O [L-ornithine dihydro chloride] |
| 46.2 | N[C@@H](CO)C(=O)O [L-serine] |
| 36.2 | N[C@@H](Cc1c[nH]c2ccccc12)C(=O)O [L-tryptophan] |
| -122 | N[C@@H](Cc1ccc(O)cc1)C(=O)O [L-tyrosine] |

Continued, compound first:

| Structure (SMILES) | inhibition at 15000 µM [%] |
| --- | --- |
| C[C@@H](N)C(=O)O [D-alanine] | 23.5 |
| NCC(=O)O [Glycine] | 31.6 |
| C[C@H](N)C(=O)O [L-alanine] | 27.2 |
| NC(N)=NOCC[C@H](N)C(=O)O [L-canavanine sulfate salt] | 22.2 |
| CC[C@H](C)[C@H](N)C(=O)O [L-isoleucine] | 22.8 |
| NCCCC[C@H](N)C(=O)O [L-lysine] | 20.2 |
| O=C(O)[C@@H]1CCCN1 [L-proline] | 20.1 |
| C[C@@H](O)[C@H](N)C(=O)O [L-threonine] | 17.8 |
| CC(C)[C@H](N)C(=O)O [L-valine] | 16.2 |

Target: T1, OBP19b
Test: direct fluorescence titration with fluorescent probe
Type: binding
Settings: not given

| Structure (SMILES) | Kd [µM] |
| --- | --- |
| c1ccc(Nc2cccc3ccccc23)cc1 [NPN, N-phenyl-1-naphthylamine] | 4.1 ± 0.9 |

Target: T1, OBP19b
Test: competitive NPN fluorescence displacement, single dose […]
Type: binding
Settings: not given

| Structure (SMILES) | competitive NPN fluorescence displacement, single dose 40 μM |
| --- | --- |
| COc1ccc2cc3[n+](cc2c1OC)CCc1cc2c(cc1-3)OCO2 [berberine] | The highest level of fluorescence displacement was induced by papaverine, berberine, 2-phenylethyl isothiocyanate |
| COc1ccc(Cc2nccc3cc(OC)c(OC)cc23)cc1OC [papaverine] | The highest level of fluorescence displacement was induced by papaverine, berberine, 2-phenylethyl isothiocyanate |
